# Data taken from patent US12590953B2, “Methods for screening cereblon modifying compounds” (CELGENE CORPORATION, priority 2018, dated 2026).
# “Also recorded” adds a separate entry of the source. Like-named read-outs stand apart in the source and are kept apart here.
# Key:
# SALL4 = SALL4 immunohistochemistry in rabbit embryos; type: in vivo; conditions: pregnant rabbits, 180 mg/kg per day from GD7, embryos GD8-12; 180 mg/kg/day
# Protocol: (§1) All animals were housed and fed according to IACUC approved procedures. The rabbits either remained untreated (n=4 per time point) or received 180 mg/kg of Thalidomide per day (n=5 per time point) starting on GD7. Dose levels and sensitive gestation windows were selected based on previously reported finding in Thalidomide teratogenicity studies (Christian MS, birth defect research, 2007)
# (§2) Cesarean sections were performed in each rabbit 3 hours after the last Thalidomide dose to ensure maximum plasma concentration of Thalidomide (CMax=3 hours) (Hui et al, Reproductive Toxicology, 2014). The uteri were removed, the implantation sites were counted and mortality and resorptions noted during embryo dissection. GD8 embryos were not dissected and were fixed in situ attached to the placental site and uterine wall. The entire implantation site was processed, embedded in paraffin and sectioned at 4 microns for immunohistochemistry. GD 9-12 embryos were collected with fetal membranes, fixed in 10% Neutral Buffered Formalin for 24 hours and transferred to 70% Ethanol. After fixation fetal membranes were removed and embryos processed, embedded in paraffin and sectioned at 4 microns for immunohistochemistry and in situ hybridization procedures.
# Rabbit embryos were stained for SALL4, and mouse testis were stained for SALL4 and ZFP91. […]
# rabbit embryos = conditions: in vivo
# Protocol: as §1
# Resorption sites, embryo mortality and gross observations were recorded during embryo collection. Embryo mortality was based on the absence of a heartbeat. There were no resorption sites or embryo and placental abnormalities in the control group. […] On Day 8, all 41 implantation sites from 5 rabbits appeared normal. On Day 9, 1/5 rabbits were affected and there was 1 resorption site out of a total of 52 implantation sites. On Day 10, 1/5 rabbit was affected and there was 1 resorption site out of a total of 38 implantation sites. On Day 11, 3/5 rabbits were affected, with 2 resorptions sites (5.41%) and 2 dead embryos (5.41%) out of 37 implantation sites. On Day 12, 5/5 rabbits were affected, with 3 resorption sites (6.98%) and 11 dead embryos (25.58%) out of […] implantation sites.
# as §2
# More specifically, adult female New Zealand white rabbits between 5 and 8 months of age were time mated for embryo collection at Gestation Days (GD) 8, 9, 10, 11 and 12 as shown in Table 1 below.
# [1] = female, New Zealand white, 8 gestation day
# [2] = female, New Zealand white, 9 gestation day
# [3] = female, New Zealand white, 10 gestation day
# [4] = female, New Zealand white, 11 gestation day
# [5] = female, New Zealand white, 12 gestation day
smiles,measurement,setting,value
O=C1CCC(N2C(=O)c3ccccc3C2=O)C(=O)N1 (centres unmarked) [thalidomide],SALL4 levels in embryos,SALL4,significant decrease in SALL4 levels which was most pronounced on GD12; also recorded: downregulation of SALL4 levels in rabbit embryos
same,Dead (dead embryos),"rabbit embryos; female, New Zealand white",0
same,"Resorbed, share of implantation sites","rabbit embryos; female, New Zealand white",1.92%
same,Average number of implantation sites,rabbit embryos; [1],8.2
same,Resorbed (resorption sites),rabbit embryos; [1],0
same,"Sites/Rabbit (implantation sites per individual rabbit; R = Resorbed, D = Dead)",rabbit embryos; [1],"9, 9, 8, 7, 8"
same,Average number of implantation sites,rabbit embryos; [2],10.4
same,Rabbits affected,rabbit embryos; [2],1/5
same,Resorbed (resorption sites),rabbit embryos; [2],1
same,Average number of implantation sites,rabbit embryos; [3],8.75
same,Dead (dead embryos),rabbit embryos; [3],1
same,"Dead, share of implantation sites",rabbit embryos; [3],0.03%
same,Rabbits affected,rabbit embryos; [3],1/5
same,Average number of implantation sites,rabbit embryos; [4],7.4
same,Dead (dead embryos),rabbit embryos; [4],2
same,"Dead, share of implantation sites",rabbit embryos; [4],5.41%
same,Rabbits affected,rabbit embryos; [4],3/5
same,Resorbed (resorption sites),rabbit embryos; [4],2
same,"Resorbed, share of implantation sites",rabbit embryos; [4],5.41%
same,Average number of implantation sites,rabbit embryos; [5],8.8
same,Dead (dead embryos),rabbit embryos; [5],11
same,"Dead, share of implantation sites",rabbit embryos; [5],25.58%
same,Rabbits affected,rabbit embryos; [5],5/5
same,Resorbed (resorption sites),rabbit embryos; [5],3
same,"Resorbed, share of implantation sites",rabbit embryos; [5],6.98%
same,Implantation frequency vs control,rabbit embryos,no significant differences in implantation frequency
